3 compounds from patent publication EP0417637A2, “Use of dopamine autoreceptor agonists in the treatment of drug dependency” (BOEHRINGER INGELHEIM KG, priority 1989, dated 1991) can be followed below.

Read-outs that look alike come from different tables or passages of the source.

The test system of data set [1] is Affen. In words: Test 2: intravenous self-administration in monkeys receiving cocaine infusions (analogous to Test 1). The settings on record: BHT 920 0,001, 0,003 and 0,01 mg/kg/Injektion or cocaine; 3 monkeys, each dose available for 25 min or 20 infusions.
Data set [2] relates to Affen. Description: Test 1: intravenous self-administration in monkeys experienced with sodium methohexital and saline. As to conditions: for Anzahl der Selbstinjektionen: average values, 3 monkeys, sessions of 130 min.
In data set [3] the test system is drogenabhängigen Affen. Description: Test 3: effect of BHT 920 on cocaine or alfentanil self-administration in drug-dependent monkeys. The format is in vivo. The protocol: Nach Durchführung des Tests Nr. […] In weiteren analogen Versuchen (siehe beiliegende graphische Darstellungen für Affe 1, Affe 2 und Affe 3) wurde den drogenabhängigen Affen BHT 920 in 2 Dosen (0,01 und 0,1 mg/kg/Injektion) gleichzeitig zu steigenden Dosen von Kokain (2 Tiere) beziehungsweise Alfentanil (1 Tier) angeboten. […] Auch sehr hohe Dosen der suchterzeugenden Droge konnten diese Wirkung von BHT 920 nicht aufheben. Aufgrund von Verhaltensbeobachtungen während der oben beschriebenen Tests kann gesagt werden, daß die hemmende Wirkung von BHT 920 nicht durch eine allgemeine Sedation erklärt werden kann. Daraus kann geschlossen werden, daß die Verabreichung von BHT 920 das Bedürfnis nach Kokain mindert und die psychische Abhängigkeit von der Droge durchbricht.

A short description of data set [4]: Extensive animal tests on abuse potential (no method given). Type of data set: in vivo. From the text:
Das ist für die Therapie von großer Bedeutung.

The subject of data set [5] is Affen. As to conditions: in vivo.

As to `C=CCN1CCc2nc(N)sc2CC1` [BHT 920, 6-Allyl-2-amino-5,6,7,8-tetrahydro-4H-thiazolo[4,5-d]azepin], the Reaktionshäufigkeit result in data set [1] is reported as “in dem Bereich lag, der auch bei Kochsalzlösung beobachtet wurde”. In addition, the “Anzahl der Selbstinjektionen” value in data set [2] (0,01 mg BHT 920/kg/Injektion i.v.) is given as 10; in data set [2] (0,05 mg BHT 920/kg/Injektion i.v.), 18; in data set [2] (0,0001 mg BHT 920/kg/Injektion i.v.), 21; in data set [2] (0,001 mg BHT 920/kg/Injektion i.v.) it was 19. For the same compound, the Reinforcement entry in data set [2] (at the doses used) is recorded as “kein Reinforcement”. Further, in data set [2] (four doses, each tested twice in each monkey, compared with saline and methohexital), the “Anzahl der genommenen Injektionen der Testsubstanz” value was “nicht höher als die Anzahl der genommenen Injektionen von Kochsalzlösung”. Also, the “Kokain - beziehungsweise Alfentanil - Selbstadministrationsrate” value was “auf Null sinken” in data set [3] (BHT 920 high dose 0,1 mg/kg/Injektion given together with rising doses of cocaine (2 animals) or alfentanil (1 animal)) and “deutlichen Abnahme” in data set [3] (BHT 920 lower dose 0,01 mg/kg/Injektion given together with rising doses of cocaine (2 animals) or alfentanil (1 animal)). Also, the “durch Kokain verursachte Reaktionshäufigkeit” value in data set [3] (session following administration of BHT 920, in 2 of 3 animals, compared with cocaine in Test 2) is listed as “wesentlich unter der in Test 2 für Kokain beobachtete Reaktionshäufigkeit”. Besides, in data set [4], the Mißbrauchspotential entry is on record as “kein Mißbrauchspotential”.

Take `COC(=O)[C@H]1[C@@H](OC(=O)c2ccccc2)C[C@@H]2CC[C@H]1N2C` [Kokain]: the Reaktionshäufigkeit entry in data set [5] was “dosenabhängige Erhöhung der Reaktionshäufigkeit”.

`CCCN[C@H]1CCc2nc(N)sc2C1` [SND 919, (S)-2-Amino-4,5,6,7-tetrahydro-6-n-propylamino-benzothiazol]: the Mißbrauchspotential result in data set [4] is listed as “kein Mißbrauchspotential”.
